From BigSolDB 2.1

O=C(OCC1c2ccccc2-c2ccccc21)ON1C(=O)CCC1=O
solubility (mole fraction)
Conditions	283.15 K	288.15 K	293.15 K	298.15 K	303.15 K	308.15 K	313.15 K	318.15 K	323.15 K	328.15 K
in DMF	0.00369	0.00533	0.00719	0.00964	0.0132	0.0177	0.023	0.0298	0.0387	0.0499
in DMSO	–	–	0.00499	0.00641	0.0084	0.0107	0.0134	0.0167	0.0208	0.0257
in ethanol	0.000477	0.000571	0.000687	0.000824	0.000979	0.00115	0.00134	0.00155	0.00177	0.00205
in ethylene glycol	0.000151	0.00019	0.000241	0.000314	0.000396	0.00049	0.000611	0.000748	0.00092	0.00111
in water	–	–	5.77e-06	7.38e-06	9.44e-06	1.19e-05	1.49e-05	1.84e-05	2.28e-05	2.78e-05
